Reference: paper PMC11253539, “Structural and mechanistic insights into the transport of aristolochic acids and their active metabolites by human serum albumin” (The Journal of Biological Chemistry, 2024)
Where “and” joins values, the source holds several entries; their conditions need not be identical. Identical values can stand only once. Like-named read-outs stand apart in the source and are kept apart here.

What was measured:
HSA (defatted HSAA3782) = molecular target: T1, HSA (defatted HSAA3782) (Homo sapiens, UniProt P02768); assay: Isothermal titration calorimetry of AA-HSA interactions; format: binding; settings: for Ka (macroscopic association constant), Site 1 / Ka (macroscopic association constant), Site 2 / Ka (KA1), site 1 / Ka (KA2), site 2 / Kd: two-site model; for Ka (KA1), site 1: site 1, 25 °C; for Ka (KA2), site 2: site 2, 25 °C; for ΔG°, Site 1 / ΔG°, Site 2: ΔG° = −RTlnKa, T = 298 K
T1 construct: two human serum albumin (HSA) samples derived from pooled human plasma; purchased Sigma Aldrich A3782; host or cells: pooled human plasma
Description: We have assessed the binding affinities of AA-I and AA-II for HSAA3782 by conducting a series of ITC experiments. […] An initial analysis of the AA-HSA binding isotherms using conventional fitting programs provides a reasonable estimate for the binding stoichiometry of two AA ligands per HSA molecule. […] Given the challenges associated with baseline assignments, we subsequently employed the NITPIC/SEDPHAT/GUSSI software suite ([60]) to ensure unambiguous analysis of the binding isotherms. Singular value decomposition yields baseline-corrected association data that are analyzed via a two-site binding model to derive macroscopic affinities for AA-HSA interactions in accordance with the following relation: A+B+B↔[AB]+B↔ABB where A represents the HSA macromolecule and B represents ligand AA-I or AA-II. This binding model implies that both sites are occupied with all possible ligation states coexisting in equilibrium.
Binding parameters for the association of defatted HSAA3782 with AA-I and AA-II were determined calorimetrically employing a MicroCal VP-ITC instrument (Malvern Panalytical). Protein stock solutions (0.5–1.5 mM) were prepared by BME reduction to disrupt potential CyS34-CyS34 dimers and dialyzed against three 500 ml exchanges of 10 mM sodium phosphate buffer (pH 7.5). Aliquots of the respective AA ligand stocks were dissolved in protein dialysate and the final DMSO concentration adjusted to 2%. The HSA standard was prepared by diluting an appropriate aliquot in dialysate containing 2% DMSO to match the syringe solution contents. Each ITC experiment consists of thirty consecutive 10.0 μl injections during which the reaction heat is monitored and integrated over a 5-min interval under constant stirring conditions. The experimental protocol has been designed to ensure that there is at least a 15-fold excess of either AA-I or AA-II (75–200 μM) in the titration syringe relative to the initial HSA concentration (5–10 μM) in the reaction cell.
Binding isotherms acquired at 25 °C were generated by recording the integrated reaction heats normalized for AA concentration versus ligand:protein ratio. […] We subsequently applied the NITPIC/SEDPHAT/GUSSI suite of software programs ([60], [88]) to ensure unbiased baseline assignments and peak integrations that facilitated selection of an appropriate binding model to characterize this protein-ligand system. The SEDPHAT program affords significant flexibility by allowing implicit and explicit uncertainty corrections that facilitate assessment of incompetent binding species in the protein and/or ligand. A nonlinear least squares analysis of the resultant profiles invoking a symmetric two-site binding model yields an optimal fit of the isotherms and requisite macroscopic parameters for AA-HSA interactions.

[1] = molecular target: T2, HSA (HSAA3782 and HSAA8763 mercaptoalbumins) (Homo sapiens, UniProt P02768); assay: HSA Trp214 fluorescence quenching assay; format: binding
T2 construct: two human serum albumin (HSA) samples derived from pooled human plasma; purchased Sigma Aldrich A3782; A8763; host or cells: pooled human plasma
Description: Ligand-induced quenching of the intrinsic HSA fluorescence has been assessed by monitoring a single Trp^214 residue located within the IIA binding cavity to derive equilibrium dissociation constants (KD) for numerous endogenous and exogenous molecules including aristolochic acids ([51], [52]). […] Addressing this deficiency, we prepared mercaptoalbumins from HSAA3782 and HSAA8763, consisting of fatty acid-free and limited fatty acid-containing HSA, respectively. We subsequently employed these well-defined HSA samples to conduct comparative fluorescence quenching studies in the presence of AA-I, AA-II, and their respective metabolites while concurrently evaluating the impact of fatty acid content on relative binding affinities.
Equilibrium fluorescence spectra of monomeric HSA samples were collected on an ISS PC1 photon counting spectrophotometer. An excitation wavelength of 295 nm was employed for HSAA3782 and HSAA8763 to selectively monitor tryptophan and avoid contributions of tyrosine residues. The excitation and emission slits were set to 1 nm and 2 nm, respectively. Prior to initiating the experiment, a stock solution of each AA compound (i.e., AA-I, AA-II, AL-I-NOH, AL-II-NOH, AL-I-NOAc. and AL-I-NOSO3) was prepared in DMSO by serial dilution to a 100-fold excess of their final concentration employed in the quenching experiments. HSA samples were diluted to 0.5, 1.0, and 2.5 μM in 10 mM KPi buffer (pH 7.5) and divided into 1 ml aliquots in Eppendorf tubes. A 10 μl aliquot of each AA compound was added to the HSA solutions to achieve a 0.2 to 50 μM concentration range in 1% DMSO. Each AA-HSA mixture was allowed to equilibrate at room temperature for at least 5 min, transferred to a 10 mm × 5 mm quartz cuvette, and emission spectrum recorded over the wavelength range of 310 to 460 nm employing a 2 nm step interval. Following each measurement, the quartz cuvette was cleaned, and the experiment repeated with the next AA:HSA ratio. […] Peak emission intensities at 340 nm were employed to construct fluorescence titration profiles for each AA compound.
Fluorescence titration profiles of the HSA quenching assays were generated using SigmaPlot 13.0. When applicable, the mean and standard deviations obtained from 3 to 5 independent measurements are reported. […] Invoking the SigmaPlot software suite, we applied the following binding model ([87]): F=Ffree−(Ffree−Fbound)∗[…] where F represents the fluorescence signal observed at each ligand concentration (Lt) and Pt is the total protein concentration. Upon fitting, one obtains values of Ffree and Fbound that correspond to the fluorescence of unbound and fully bound HSA, respectively. The number of binding sites and their respective affinities has been determined for AA-I and AA-II interactions with HSA via application of isothermal titration calorimetry as described in the following section.

HSA = system: HSA; set-up: method as in PMID 16413837; settings: numerous binding sites; cited from earlier work
[2] = ITC, Site 1, 10 mM NaPO4 pH 7.5, 25 °C
[3] = ITC, Site 2, 10 mM NaPO4 pH 7.5, 25 °C
[4] = fatty acid-containing HSA, mean ± SD of 3 to 5 measurements, 10 mM KPi pH 7.5, read-out: KDapp (HSAA8763)
[5] = fatty acid-free HSA, mean ± SD of 3 to 5 measurements, 10 mM KPi pH 7.5, read-out: KDapp (HSAA3782)

T1 sequence (P02768 25-609): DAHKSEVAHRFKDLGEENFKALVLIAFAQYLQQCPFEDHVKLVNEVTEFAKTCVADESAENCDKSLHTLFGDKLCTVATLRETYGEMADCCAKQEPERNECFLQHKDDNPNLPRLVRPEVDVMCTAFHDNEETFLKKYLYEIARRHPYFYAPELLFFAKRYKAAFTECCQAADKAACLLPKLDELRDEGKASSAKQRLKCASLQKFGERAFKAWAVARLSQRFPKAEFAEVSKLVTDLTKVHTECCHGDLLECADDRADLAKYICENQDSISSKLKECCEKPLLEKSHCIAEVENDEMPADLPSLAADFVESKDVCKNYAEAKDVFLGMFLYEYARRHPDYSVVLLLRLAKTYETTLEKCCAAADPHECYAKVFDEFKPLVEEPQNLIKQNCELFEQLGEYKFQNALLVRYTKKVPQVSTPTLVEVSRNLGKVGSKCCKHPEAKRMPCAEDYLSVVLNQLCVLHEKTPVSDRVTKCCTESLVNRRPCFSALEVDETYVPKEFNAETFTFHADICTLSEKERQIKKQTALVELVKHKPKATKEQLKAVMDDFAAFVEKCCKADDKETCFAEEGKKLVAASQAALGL
T2 sequence (P02768 25-609): as above

Compound	Ka (macroscopic association constant), Site 1 (HSA (defatted HSAA3782); [2])	Ka (macroscopic association constant), Site 2 (HSA (defatted HSAA3782); [3])	Ka (KA1), site 1 (HSA (defatted HSAA3782); ITC) [M⁻¹]	Ka (KA2), site 2 (HSA (defatted HSAA3782); ITC) [M⁻¹]	ΔG°, Site 1 (HSA (defatted HSAA3782)) [kcal/mol]	ΔG°, Site 2 (HSA (defatted HSAA3782)) [kcal/mol]	Kd [1, 4] [nM]	Kd [1, 5] [nM]	other results
COc1cccc2c1cc([N+](=O)[O-])c1c(C(=O)O)cc3c(c12)OCO3 [AA-I, aristolochic acid I]	1.5 10^6 M^−1 and 1.50 ± 0.18 10^6 M^−1	0.5 10^6 M^−1 and 0.54 ± 0.04 10^6 M^−1	1.5e+06	540000	-8.41 ± 1.00	-7.82 ± 0.58	–	–	Kd (HSA (defatted HSAA3782); KD, Site 1, ITC, Site 1, 10 mM NaPO4 pH 7.5, 25 °C): 690 ± 80 nM; Kd (HSA (defatted HSAA3782); KD, Site 2, ITC, Site 2, 10 mM NaPO4 pH 7.5, 25 °C): 1870 ± 120 nM; Kd [1]: 430 ± 30 nM
COc1cccc2c1cc1c3c(cc4c(c32)OCO4)C(=O)N1O [AL-I-NOH, N-hydroxyaristolactam I]	–	–	–	–	–	–	740 ± 60	650 ± 60	–
O=C(O)c1cc2c(c3c1c([N+](=O)[O-])cc1ccccc13)OCO2 [AA-II, aristolochic acid II]	0.84 ± 0.07 10^6 M^−1	0.90 ± 0.10 10^6 M^−1	840000	900000	-8.10 ± 0.67	-8.12 ± 0.82	360 ± 30	630 ± 100	association constant, first site (HSA (defatted HSAA3782); ITC, first of two sites, as given in abstract): 8.4 10^5 M^−1; association constant, second site (HSA (defatted HSAA3782); ITC, second of two sites, as given in abstract): 9.0 10^5 M^−1; Kd (HSA (defatted HSAA3782); ITC, Site 1, 10 mM NaPO4 pH 7.5, 25 °C, read-out: KD, Site 1): 1190 ± 190 nM; Kd (HSA (defatted HSAA3782); ITC, Site 2, 10 mM NaPO4 pH 7.5, 25 °C, read-out: KD, Site 2): 1110 ± 110 nM
COc1cccc2c1cc1c3c(cc4c(c32)OCO4)C(=O)N1OC(C)=O [AL-I-NOAc]	–	–	–	–	–	–	590 ± 70	670 ± 130	–
CCCCCCCCCCCCCC(=O)O [myristic acid]	–	–	–	–	–	–	–	–	affinities for HSA binding sites (HSA): 10^4 to 10^7 M^−1
